ChEMBL document CHEMBL4024742, “Pharmaceutical Approaches to Target Antibiotic Resistance Mechanisms” (J Med Chem, 2017)
pIC50, pKi: −log10 of the molar value. ≈ marks a conversion by molar mass, not a printed value.

How the values were obtained:
[1] = Inhibition of Escherichia coli KPC-2 using nitrocefin as substrate preincubated for 5 mins followed by substrate addition
[2] = Inhibition of Escherichia coli SHV-1 using nitrocefin as substrate preincubated for 5 mins followed by substrate addition
[3] = Inhibition of Mycobacterium tuberculosis Eis
Enterobacter [4] = experiment: Antimicrobial activity against Enterobacter; assay type: functional
Pseudomonas aeruginosa [5] = experiment: Antimicrobial activity against Pseudomonas aeruginosa; assay type: functional
[6] = Inhibition of bacterial beta-lactamase TEM-1 using nitrocefin as substrate by spectrophotometric analysis; design: species or system Bacteria
[7] = Inhibition of bacterial beta-lactamase CMY-2 using nitrocefin as substrate by spectrophotometric analysis; design: species or system Bacteria
[8] = Inhibition of bacterial beta-lactamase CTX-M-9 using nitrocefin as substrate by spectrophotometric analysis; design: species or system Bacteria
Escherichia coli [9] = experiment: Antimicrobial activity against Escherichia coli; assay type: functional
[10] = Inhibition of bacterial beta-lactamase KPC-2 using nitrocefin as substrate by spectrophotometric analysis; design: species or system Bacteria
[11] = Inhibition of Escherichia coli PBP2
Escherichia coli [12] = experiment: Potentiation of cefotaxime induced-antimicrobial activity against Escherichia coli (reference value: 8 to 128 ug/ml); assay type: functional
[13] = Inhibition of bacterial AmpC; design: species or system Bacteria
Staphylococcus aureus [14] = experiment: Antibiofilm activity against methicillin-resistant Staphylococcus aureus BAA-44 at 100 uM after 24 hrs by crystal violet staining based assay; assay type: functional; settings: BAA-44, 24 h
Staphylococcus aureus [15] = experiment: Antibiofilm activity against methicillin-resistant Staphylococcus aureus BAA-44 after 24 hrs by crystal violet staining based assay; assay type: functional; settings: BAA-44, 24 h
Acinetobacter baumannii = experiment: Antibiofilm activity against multi drug-resistant Acinetobacter baumannii ATCC 19606 assessed as biofilm dispersion after 24 hrs by crystal violet staining based assay; assay type: functional; settings: ATCC 19606 = CIP 70.34 = JCM 6841, 24 h
Staphylococcus aureus [16] = experiment: Inhibition of biofilm formation in Staphylococcus aureus ATCC 25923 at 0.045 ug/ml after 24 hrs by MTT assay; assay type: functional; settings: ATCC 25923, 24 h
Staphylococcus aureus [17] = experiment: Inhibition of biofilm formation in Staphylococcus aureus 657 at 0.045 ug/ml after 24 hrs by MTT assay; assay type: functional; settings: Staphylococcus aureus, 657, 24 h
[18] = system: Staphylococcus epidermidis; experiment: Inhibition of biofilm formation in Staphylococcus epidermidis DSM 3269 at 0.045 ug/ml after 24 hrs by MTT assay; assay type: functional; settings: DSM 3269, 24 h
[19] = system: Staphylococcus epidermidis; experiment: Inhibition of biofilm formation in Staphylococcus epidermidis RP62A at 0.045 ug/ml after 24 hrs by MTT assay; assay type: functional
Staphylococcus aureus [20] = experiment: Inhibition of biofilm formation in Staphylococcus aureus 702 at 0.045 ug/ml after 24 hrs by MTT assay; assay type: functional; settings: Staphylococcus aureus, 702, 24 h
Staphylococcus aureus [21] = experiment: Inhibition of biofilm formation in Staphylococcus aureus ATCC 29213 at 0.045 ug/ml after 24 hrs by MTT assay; assay type: functional; settings: ATCC 29213, 24 h
Escherichia coli [22] = experiment: Potentiation of levofloxacin induced-antimicrobial activity against Escherichia coli AB1157 assessed as fold reduction in levofloxacin MIC at 12.5 uM by broth microdilution method; assay type: functional
Escherichia coli [23] = experiment: Potentiation of 0.016 ug/ml ciprofloxacin induced-antimicrobial activity against Escherichia coli AB1157 assessed as fold reduction in cell viability at 3.13 uM after 4 hrs by time kill assay; assay type: functional
Escherichia coli [24] = experiment: Potentiation of piperacillin induced-antimicrobial activity against Escherichia coli AB1157 assessed as fold reduction in piperacillin MIC at 12.5 uM by broth microdilution method; assay type: functional
Escherichia coli [25] = experiment: Potentiation of ciprofloxacin induced-antimicrobial activity against Escherichia coli AB1157 assessed as fold reduction in ciprofloxacin MIC at 12.5 uM by broth microdilution method; assay type: functional
Enterobacter [26] = experiment: Antibacterial activity against ESBL/KPC-producing Enterobacter assessed as potentiation of aztreonam induced-antimicrobial activity by measuring aztreonam MIC (Rvb > 16 ug/ml); assay type: functional
Pseudomonas aeruginosa [27] = experiment: Antibiofilm activity against wild-type Pseudomonas aeruginosa PAO1 after 24 hrs by crystal violet staining based assay; assay type: functional; settings: PAO1, 24 h
Staphylococcus aureus [28] = experiment: Antibacterial activity against glycopeptide-intermediate Staphylococcus aureus by broth microdilution method; assay type: functional
Staphylococcus aureus [29] = experiment: Potentiation of ciprofloxacin induced-antimicrobial activity against Staphylococcus aureus ATCC 29213 assessed as fold reduction in ciprofloxacin MIC at 31.25 uM by broth microdilution method; assay type: functional
[30] = biological target: T1, Quinolone resistance protein NorA (Staphylococcus aureus, UniProt P0A0J7); experiment: Inhibition of Staphylococcus aureus 1199B NorA assessed as reduction in ethidium bromide efflux by fluorescence assay
T1 sequence (P0A0J7 whole entry): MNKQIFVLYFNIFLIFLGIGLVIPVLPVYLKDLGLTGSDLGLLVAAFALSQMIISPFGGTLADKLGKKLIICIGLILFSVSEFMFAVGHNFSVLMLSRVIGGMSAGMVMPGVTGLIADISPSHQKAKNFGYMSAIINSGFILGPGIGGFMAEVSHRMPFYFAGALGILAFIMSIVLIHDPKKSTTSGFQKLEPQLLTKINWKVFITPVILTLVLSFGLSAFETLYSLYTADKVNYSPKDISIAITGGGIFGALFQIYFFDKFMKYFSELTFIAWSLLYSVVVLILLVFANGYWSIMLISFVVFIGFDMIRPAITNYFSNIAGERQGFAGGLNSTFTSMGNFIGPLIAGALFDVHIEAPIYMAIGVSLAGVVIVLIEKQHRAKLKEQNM

Staphylococcus aureus [31] = experiment: Antibacterial activity against methicillin-sensitive Staphylococcus aureus by broth microdilution method; assay type: functional
[32] = Inhibition of bacterial AmpC using nitrocefin as substrate incubated for 5 mins followed by substrate addition by UV-vis spectrophotometer; design: species or system Bacteria
Staphylococcus aureus [33] = experiment: Antibiofilm activity against methicillin-resistant Staphylococcus aureus BAA-1770; assay type: functional
Staphylococcus aureus [34] = experiment: Antibiofilm activity against methicillin-resistant Staphylococcus aureus BAA-1765; assay type: functional
Staphylococcus aureus [35] = experiment: Antibiofilm activity against methicillin-resistant Staphylococcus aureus BAA-43300; assay type: functional
[36] = system: Staphylococcus epidermidis; experiment: Antibacterial activity against planktonic Staphylococcus epidermidis RP62A after 24 hrs by broth microdilution method; assay type: functional
Staphylococcus aureus [37] = experiment: Antibacterial activity against planktonic Staphylococcus aureus ATCC 43866 after 24 hrs by broth microdilution method; assay type: functional; settings: ATCC 43866, 24 h
Staphylococcus aureus [38] = experiment: Inhibition of biofilm formation in Staphylococcus aureus ATCC 29213 at 6.2 ug/ml after 24 hrs by MTT assay; assay type: functional; settings: ATCC 29213, 24 h
Staphylococcus aureus [39] = experiment: Inhibition of biofilm formation in Staphylococcus aureus ATCC 43866 at 25 ug/ml after 24 hrs by MTT assay; assay type: functional; settings: ATCC 43866, 24 h
Staphylococcus aureus [40] = experiment: Antibacterial activity against planktonic Staphylococcus aureus ATCC 29213 after 24 hrs by broth microdilution method; assay type: functional; settings: ATCC 29213, 24 h
[41] = Inhibition of bacterial CTX-M by measuring nitrocefin degradation; design: species or system Bacteria
[42] = Inhibition of bacterial CMY by measuring nitrocefin degradation; design: species or system Bacteria
[43] = Inhibition of bacterial SHV by measuring nitrocefin degradation; design: species or system Bacteria
[44] = Inhibition of bacterial KPC by measuring nitrocefin degradation; design: species or system Bacteria
Escherichia coli [45] = experiment: Potentiation of tetracycline induced-antimicrobial activity against multi drug-resistant Escherichia coli AG112 assessed as fold reduction in tetracycline MIC at 100 ug/ml by broth microdilution method; assay type: functional
Escherichia coli [46] = experiment: Potentiation of ciprofloxacin induced-antimicrobial activity against multi drug-resistant Escherichia coli AG112 assessed as fold reduction in ciprofloxacin MIC at 100 ug/ml by broth microdilution method; assay type: functional
Escherichia coli [47] = experiment: Potentiation of florfenicol induced-antimicrobial activity against multi drug-resistant Escherichia coli AG112 assessed as fold reduction in florfenicol MIC at 100 ug/ml by broth microdilution method; assay type: functional

## O=C(Cc1cccs1)NC(Cn1cc(C(=O)O)nn1)B(O)O (centres undefined)
[1]
  pIC50: 7.08
[2]
  pIC50: 6.89

## O=C(C[n+]1ccn2cccc2c1-c1ccccc1)c1ccccc1
[3]
  pIC50: 6.73

## CC(=O)NNC(=O)[C@@H]1CC[C@@H]2CN1C(=O)N2OS(=O)(=O)[O-].[Na+]
Enterobacter [4]
  MIC: ≤ 2 µg/mL
Pseudomonas aeruginosa [5]
  MIC: ≤ 2 µg/mL
[6]
  pIC50: 6.49 to 8.10
[7]
  pIC50: 6.49 to 8.10
[8]
  pIC50: 6.49 to 8.10
Escherichia coli [9]
  MIC: ≤ 2 µg/mL
[10]
  pIC50: 6.49 to 8.10
[11]
  pIC50: 5.49

## O=S(=O)(NCB(O)O)c1ccc(-c2nnn[nH]2)nc1
Escherichia coli [12]
  MIC: 0.5 to 1 µg/mL
[13]
  pKi: 9.10

## CCCCOc1ccc(/C=C(\C)Cn2cc(CCCCCc3c[nH]c(N)n3)nn2)cc1
Staphylococcus aureus [14]
  inhibition at 100 µM: > 94%
Staphylococcus aureus [15]
  pIC50: 5.07
Acinetobacter baumannii
  pIC50: 4.35

## O=C(c1cc(Br)ccc1O)c1[nH]c(Cl)c(Cl)c1Br
Staphylococcus aureus [16]
  inhibition at 0.045 µg/mL: > 50%
Staphylococcus aureus [17]
  inhibition at 0.045 µg/mL: > 50%
[18]
  inhibition at 0.045 µg/mL: > 50%
[19]
  inhibition at 0.045 µg/mL: > 50%
Staphylococcus aureus [20]
  inhibition at 0.045 µg/mL: > 50%
Staphylococcus aureus [21]
  inhibition at 0.045 µg/mL: > 50%

## CC1(C)Cc2c(C#N)c(SCCc3ccccc3)nc(N3CCOCC3)c2CO1
Escherichia coli [22]
  fold change (FC): 4
Escherichia coli [23]
  fold change (FC): 10000
Escherichia coli [24]
  fold change (FC): 8
Escherichia coli [25]
  fold change (FC): 2

## NC(=O)[C@@H]1CC[C@@H]2CN1C(=O)N2OS(=O)(=O)[O-].[Na+] [AVIBACTAM SODIUM]
Enterobacter [26]
  MIC: < 4 µg/mL
[11]
  pIC50: 4.20

## Cc1cc2nc(N)[nH]c2cc1C
Pseudomonas aeruginosa [27]
  pIC50: 5.40

## COc1cc(O)c2c(C)c(-c3ccccc3)c(=O)[nH]c2c1
Staphylococcus aureus [28]
  MIC: 17.6 to 35.1 µg/mL (≈ 62.6 to 125 µM)
Staphylococcus aureus [29]
  fold change (FC): 4
[30]
  pIC50: 4.74
Staphylococcus aureus [31]
  MIC: 17.6 to 35.1 µg/mL (≈ 62.6 to 125 µM)

## O=C(Cc1cccs1)N[C@H](B(O)O)c1cccc(C(=O)O)c1
[32]
  pKi: 9.00

## CCCCCc1ccc(C(=O)NCCn2cc(CCCCCc3c[nH]c(NCc4ccc(CCCC)cc4)n3)nn2)cc1
Staphylococcus aureus [33]
  pIC50: 4.74 to 4.80
Staphylococcus aureus [34]
  pIC50: 4.74 to 4.80
Staphylococcus aureus [35]
  pIC50: 4.74 to 4.80

## Cc1nn(C)c([N-]C(=O)c2ccc([N+](=O)[O-])cc2)c1[N+]#N
[36]
  MIC: 1.5 to 12.5 µg/mL (≈ 5.24 to 43.7 µM)
Staphylococcus aureus [37]
  MIC: 1.5 to 12.5 µg/mL (≈ 5.24 to 43.7 µM)
Staphylococcus aureus [38]
  inhibition at 6.2 µg/mL: 86.5%
Staphylococcus aureus [39]
  inhibition at 25 µg/mL: 69 to 96%
Staphylococcus aureus [40]
  MIC: 1.5 to 12.5 µg/mL (≈ 5.24 to 43.7 µM)

## O=C(O)C[C@@H]1CC[C@H](NC(=O)Cc2cccs2)B(O)O1 [VABORBACTAM]
[41]
  pKi: 7.00 to 7.54
[42]
  pKi: 7.00 to 7.54
[43]
  pKi: 7.00 to 7.54
[44]
  pKi: 7.00 to 7.54

## c1ccc2c(CN3CCNCC3)cccc2c1
Escherichia coli [45]
  fold change (FC): 4
Escherichia coli [46]
  fold change (FC): 4
Escherichia coli [47]
  fold change (FC): 4
